According to patent US7632814B2, “HYD1 peptides as anti-cancer agents” (University of South Florida, priority 2006, dated 2009):
Where no end group is shown, it is not given here. [ ]: non-standard residue; d: D form.

What was measured:
H929 cells = assay: Cell adhesion to fibronectin (crystal violet staining); type: cell-based; details: varying concentrations, 30 minutes pre-incubation, 2 hours adhesion
Experimental: FIGS. 30A and 30B are graphs showing that HYD1 but not the scrambled derivative HYD1S inhibited cell adhesion of both 8226 and H929 cells to FN. Varying concentrations of either HYD1, HYD1S, or a 1:100 dilution of either α4β1 or α5β1 integrin functional blocking antibodies was added to either (FIG. 30A) 8226 cell or (FIG. 30B) H929 cells for 30 minutes prior to adding cells to either FN or BSA coated wells. Cells were allowed to adhere for 2 hours and adherent cells were measured by crystal violet staining at 540 nm. Shown is the mean and standard deviation of a representative experiment performed in quadruplicate. Three independent experiments were performed and similar results were obtained.
Quantification of cell adhesion to fibronectin. Briefly, 8226 or H929 myeloma cells were pre-incubated with varying concentrations of either HYD1 or the scrambled peptide (HYD1S) for 30 minutes prior to allowing cells to attach to FN for two hours. Cell adhesion was detected by crystal violet staining as previously described (Damiano J S et al. Blood, 1999; 93:1658-1667; Hazlehurst L A et al. Oncogene, 2000; 19:4319-4327).

caspase 3 = assay: Caspase 3 activity in H929 cells (fluorescent substrate); type: cell-based; details: 6 and 24 hrs, relative to treatment with melphalan
Experimental: Cells were treated for 6 hours (FIG. 21A) or 24 hours (FIG. 21B) and caspase 3 activity was measured using a fluorescent substrate. Shown is a representative experiment performed in triplicate. The experiment was repeated twice and similar results were obtained.
Detection of Apoptosis. A flow cytometric assay measuring Annexin V/PI staining was used to measure apoptotic cells following 24 hours of peptide exposure as previously described (Damiano J S et al. Blood, 1999; 93:1658-1667). The assay was performed in triplicate and 3 independent experiments were performed. Caspase 3 and 8 activity was measured at 6 and 24 hrs post peptide treatment per manufactures' instructions (BD Biosciences, San Jose, Calif.). The caspase assays were performed in triplicate and repeated twice.

H929 MM = assay: SCID-Hu in vivo model, tumor burden; set-up: species or system SCID mice; details: H929, 8 mg/kg I.P. daily for 14 days starting day 28
Experimental: Tumor burden was measured by circulating […] levels. On day 28 (before drug treatment), measurements were recorded for each individual mouse and subsequent values obtained weekly are represented as a ratio of day 28 (day X/day 28). N=4 mice per group. HYD1 was administered I.P. at 8 mg/kg daily for 14 days (starting day 28).
SCID-Hu model. The SCID-Hu model was performed as previously described (Zhu K et al. Blood, 2005; 105:4759-4766). Briefly, SCID/Beige mice 4-6 weeks old were purchased from Taconic (Germantown, N.Y.). Fetal tissue (18-23 weeks) was obtained from Advance Bioscience Resource (Alameda, Calif.) in compliance with state and federal government regulations. Two bones were surgically implanted in the mammary fat pad of 6-8 week old female SCID mice. […] At 28 days, baseline tumor burden was quantified in the sera using either a lambda (8226) or kappa (H929) ELISA kit per manufacture instructions (Bethyl, Montgomery, Tex.) and mice were randomized into treatment groups. […] Tumor burden was assessed weekly by measuring kappa or lambda levels in the sera.
The SCID-Hu model consists of implanting human fetal bone into the mammary mouse fat pad of SCID mice. […] Human paraprotein can be measured in the mouse sera and levels represent a good marker for evaluating tumor burden and response to chemotherapy. […]

kikmviswkg ([dK][dI][dK][dM][dV][dI][dS][dW][dK]G) [HYD1]
blocking of adhesion of H929 cells to the extracellular matrix FN (H929 cells): blocks adhesion of 8226 and H929 cells to the extracellular matrix FN in a dose dependent manner
caspase 3 activity (caspase 3): minimal caspase 3 activity
tumor growth in vivo compared to vehicle control (H929 MM): reduces H929 MM growth in vivo
